# Assay results reported in patent US20020137929A1, “1 - (3-heterocyclylphenyl) isothiourea, -isourea, -guanidine and -amidine herbicidal agents” (Intellectual Property Department, BASF Aktiengesellschaft, priority 1998, published 2002).
# Key:
# [1] = tested on: SETVI (Foxtail, Green); experiment: Preemergence herbicidal evaluation; assay type: in vivo, Setaria viridis; settings: rated 4-5 weeks after treatment
# Method in brief: (§1)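 Visual 0-9 rating vs control (stand, vigor, malformation, size, chlorosis, overall appearance), scored 4-5 wk after spraying. Seeded soil cups were treated preemergence with compound in aqueous acetone, ~0.0156-0.500 kg/ha equivalent.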
# [2] = tested on: CYPSE (Flatsedge); experiment: Preemergence weed control under flooded paddy conditions; assay type: in vivo, Cyperus serotinus; settings: rated 3-4 weeks after treatment
# Method in brief: (§2)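 First, seeds or propagules go into the top 0.5 cm of silt loam; next, water is held 1.5 to 3 cm over the soil; then compound (50/50 acetone/water) is pipetted into it at about 0.0313 to 0.500 kg/ha; finally plants are rated visually 0-9 after three to four weeks.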
# [3] = tested on: AMBEL (Ragweed, Common); experiment: Postemergence herbicidal evaluation; assay type: in vivo, Ambrosia artemisifolia; settings: postemergence
# Method in brief: (§3)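 ~2-wk seedlings; postemergence spray, 40 psi; vehicle 1:1 acetone:water + 0.5% Tween 20; rate ≈0.0156–0.500 kg/ha; greenhouse hold; scored 4–5 wk after treatment, 0–9 scale vs control; repeat tests averaged.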
# [4] = tested on: GLXMAW (Soybean, Williams); experiment: Postemergence herbicidal evaluation; assay type: in vivo, Glycine max, (L.) Merr. cv Williams; settings: postemergence
# Method in brief: as §3
# [5] = tested on: MOOVA (Monochoria); experiment: Preemergence weed control under flooded paddy conditions; assay type: in vivo, Monochoria vaginalis; settings: rated 3-4 weeks after treatment
# Method in brief: as §2
# [6] = tested on: GALAP (Galium); experiment: Preemergence herbicidal evaluation; assay type: in vivo, Galium aparine; settings: rated 4-5 weeks after treatment
# Method in brief: as §1
# [7] = tested on: ORYSAT (Rice, Tebonnet); experiment: Preemergence herbicidal evaluation; assay type: in vivo, Oryza sativa, (L.) Tebonnet; settings: rated 4-5 weeks after treatment
# Method in brief: as §1
# [8] = tested on: CASOB (Sicklepod); experiment: Postemergence herbicidal evaluation; assay type: in vivo, Cassia obtusifolia; settings: postemergence
# Method in brief: as §3
# [9] = tested on: SAGPY (Arrowhead (Pygmaea)); experiment: Preemergence weed control under flooded paddy conditions; assay type: in vivo, Sagittaria pygmaea; settings: rated 3-4 weeks after treatment
# Method in brief: as §2
# [10] = tested on: GALAP (Galium); experiment: Postemergence herbicidal evaluation; assay type: in vivo, Galium aparine; settings: postemergence
# Method in brief: as §3
# [11] = tested on: ECHORC (Watergrass (Calif.)); experiment: Preemergence weed control under flooded paddy conditions; assay type: in vivo, Echinochloa oryzoides; settings: rated 3-4 weeks after treatment
# Method in brief: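 Herbicidal effect is scored visually on a 0-9 scale against an untreated control, three to four weeks after compounds are pipetted into the flood water (1.5 to 3 cm deep) over seeds planted in silt loam at 0.5 cm depth. Rates: about 0.0313 to 0.500 kg/ha.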
# [12] = tested on: TRZAWR (Wheat, Winter, cv Riband); experiment: Postemergence herbicidal evaluation; assay type: in vivo, Triticum aestivum; settings: postemergence
# Method in brief: as §3
smiles,measurement,setting,value
"Cn1c(C(F)(F)F)cc(=O)n(-c2cc(N=C3SCC(=O)N3CC(F)(F)F)c(Cl)cc2F)c1=O [Compound 163, 3-{4-Chloro-2-fluoro-5-{[4-oxo-3-(2,2,2-trifluoroethyl)-2-thiazolidinylidene]amino}phenyl}-1-methyl-6-(trifluoromethyl)-2,4(1H,3H)-pyrimidinedione]",Preemergence herbicidal rating SETVI,[1]; 0.0156 kg/ha,9.0
same,Preemergence herbicidal rating SETVI,[1]; 0.0313 kg/ha,9.0
same,Preemergence herbicidal rating SETVI,[1]; 0.0625 kg/ha,9.0
same,Preemergence herbicidal rating SETVI,[1]; 0.1250 kg/ha,9.0
same,Preemergence herbicidal rating SETVI,[1]; 0.2500 kg/ha,9.0
same,"herbicidal effect rating, CYPSE",[2]; 0.1250 kg/ha,9.0
same,"herbicidal effect rating, CYPSE",[2]; 0.2500 kg/ha,9.0
same,herbicidal rating AMBEL,[3]; rate 0.0156 kg/ha,9.0
same,herbicidal rating AMBEL,[3]; rate 0.0313 kg/ha,9.0
same,herbicidal rating AMBEL,[3]; rate 0.0625 kg/ha,9.0
same,herbicidal rating GLXMAW,[4]; rate 0.0156 kg/ha,6.0
same,herbicidal rating GLXMAW,[4]; rate 0.0313 kg/ha,7.0
same,herbicidal rating GLXMAW,[4]; rate 0.0625 kg/ha,8.0
same,"herbicidal effect rating, MOOVA",[5]; 0.0313 kg/ha,9.0
same,"herbicidal effect rating, MOOVA",[5]; 0.0625 kg/ha,9.0
same,"herbicidal effect rating, MOOVA",[5]; 0.1250 kg/ha,9.0
same,"herbicidal effect rating, MOOVA",[5]; 0.2500 kg/ha,9.0
same,Preemergence herbicidal rating GALAP,[6]; 0.0156 kg/ha,0.0
same,Preemergence herbicidal rating GALAP,[6]; 0.0313 kg/ha,0.0
same,Preemergence herbicidal rating GALAP,[6]; 0.0625 kg/ha,0.0
same,Preemergence herbicidal rating GALAP,[6]; 0.1250 kg/ha,0.0
same,Preemergence herbicidal rating GALAP,[6]; 0.2500 kg/ha,3.0
same,Preemergence herbicidal rating ORYSAT,[7]; 0.0156 kg/ha,1.0
same,Preemergence herbicidal rating ORYSAT,[7]; 0.0313 kg/ha,3.0
same,Preemergence herbicidal rating ORYSAT,[7]; 0.0625 kg/ha,5.0
same,Preemergence herbicidal rating ORYSAT,[7]; 0.1250 kg/ha,7.0
same,Preemergence herbicidal rating ORYSAT,[7]; 0.2500 kg/ha,8.0
same,herbicidal rating CASOB,[8]; rate 0.0156 kg/ha,0.0
same,herbicidal rating CASOB,[8]; rate 0.0313 kg/ha,0.0
same,herbicidal rating CASOB,[8]; rate 0.0625 kg/ha,3.0
same,"herbicidal effect rating, SAGPY",[9]; 0.0313 kg/ha,2.0
same,"herbicidal effect rating, SAGPY",[9]; 0.0625 kg/ha,3.0
same,"herbicidal effect rating, SAGPY",[9]; 0.1250 kg/ha,6.0
same,"herbicidal effect rating, SAGPY",[9]; 0.2500 kg/ha,7.0
same,herbicidal rating GALAP,[10]; rate 0.0156 kg/ha,0.0
same,herbicidal rating GALAP,[10]; rate 0.0313 kg/ha,3.0
same,herbicidal rating GALAP,[10]; rate 0.0625 kg/ha,5.0
same,"herbicidal effect rating, ECHORC",[11]; 0.0313 kg/ha,9.0
same,"herbicidal effect rating, ECHORC",[11]; 0.0625 kg/ha,9.0
same,"herbicidal effect rating, ECHORC",[11]; 0.1250 kg/ha,9.0
same,"herbicidal effect rating, ECHORC",[11]; 0.2500 kg/ha,9.0
same,herbicidal rating TRZAWR,[12]; rate 0.0156 kg/ha,3.5
same,herbicidal rating TRZAWR,[12]; rate 0.0313 kg/ha,4.0
same,herbicidal rating TRZAWR,[12]; rate 0.0625 kg/ha,4.5
"C#CC(C)N1C(=O)CSC1=Nc1cc(-n2c(=O)cc(C(F)(F)F)n(C)c2=O)c(F)cc1Cl (stereo not shown) [Compound 165, 3-{4-Chloro-2-fluoro-5-{[3-(1-methyl-2-propynyl)-4-oxo-2-thiazolidinylidene]amino}phenyl}-1-methyl-6-(trifluoromethyl)-2,4(1H,3H)-pyrimidinedione]",Preemergence herbicidal rating SETVI,[1]; 0.0156 kg/ha,0.0
same,Preemergence herbicidal rating SETVI,[1]; 0.0313 kg/ha,6.0
same,Preemergence herbicidal rating SETVI,[1]; 0.0625 kg/ha,6.0
same,Preemergence herbicidal rating SETVI,[1]; 0.1250 kg/ha,9.0
same,Preemergence herbicidal rating SETVI,[1]; 0.2500 kg/ha,9.0
same,Preemergence herbicidal rating SETVI,[1]; 0.5000 kg/ha,9.0
same,"herbicidal effect rating, CYPSE",[2]; 0.0313 kg/ha,0.0
same,"herbicidal effect rating, CYPSE",[2]; 0.1250 kg/ha,0.0
same,"herbicidal effect rating, CYPSE",[2]; 0.2500 kg/ha,3.0
same,herbicidal rating AMBEL,[3]; rate 0.0156 kg/ha,2.0
same,herbicidal rating AMBEL,[3]; rate 0.0313 kg/ha,6.0
same,herbicidal rating AMBEL,[3]; rate 0.0625 kg/ha,7.0
same,herbicidal rating AMBEL,[3]; rate 0.1250 kg/ha,9.0
same,herbicidal rating GLXMAW,[4]; rate 0.0156 kg/ha,5.0
same,herbicidal rating GLXMAW,[4]; rate 0.0313 kg/ha,5.0
same,herbicidal rating GLXMAW,[4]; rate 0.0625 kg/ha,6.5
same,herbicidal rating GLXMAW,[4]; rate 0.1250 kg/ha,7.0
same,"herbicidal effect rating, MOOVA",[5]; 0.0313 kg/ha,9.0
same,"herbicidal effect rating, MOOVA",[5]; 0.0625 kg/ha,9.0
same,"herbicidal effect rating, MOOVA",[5]; 0.1250 kg/ha,9.0
same,"herbicidal effect rating, MOOVA",[5]; 0.2500 kg/ha,9.0
same,Preemergence herbicidal rating GALAP,[6]; 0.0156 kg/ha,0.0
same,Preemergence herbicidal rating GALAP,[6]; 0.0313 kg/ha,0.0
same,Preemergence herbicidal rating GALAP,[6]; 0.0625 kg/ha,0.0
same,Preemergence herbicidal rating GALAP,[6]; 0.1250 kg/ha,4.0
same,Preemergence herbicidal rating GALAP,[6]; 0.2500 kg/ha,7.0
same,Preemergence herbicidal rating GALAP,[6]; 0.5000 kg/ha,8.0
same,Preemergence herbicidal rating ORYSAT,[7]; 0.0156 kg/ha,0.0
same,Preemergence herbicidal rating ORYSAT,[7]; 0.0313 kg/ha,0.0
same,Preemergence herbicidal rating ORYSAT,[7]; 0.0625 kg/ha,0.0
same,Preemergence herbicidal rating ORYSAT,[7]; 0.1250 kg/ha,1.0
same,Preemergence herbicidal rating ORYSAT,[7]; 0.2500 kg/ha,3.0
same,Preemergence herbicidal rating ORYSAT,[7]; 0.5000 kg/ha,5.0
same,herbicidal rating CASOB,[8]; rate 0.0156 kg/ha,0.0
same,herbicidal rating CASOB,[8]; rate 0.0313 kg/ha,2.0
same,herbicidal rating CASOB,[8]; rate 0.0625 kg/ha,3.0
same,herbicidal rating CASOB,[8]; rate 0.1250 kg/ha,3.0
same,"herbicidal effect rating, SAGPY",[9]; 0.0313 kg/ha,4.0
same,"herbicidal effect rating, SAGPY",[9]; 0.0625 kg/ha,5.0
same,"herbicidal effect rating, SAGPY",[9]; 0.1250 kg/ha,4.0
same,"herbicidal effect rating, SAGPY",[9]; 0.2500 kg/ha,7.0
same,herbicidal rating GALAP,[10]; rate 0.0156 kg/ha,0.0
same,herbicidal rating GALAP,[10]; rate 0.0313 kg/ha,1.0
same,herbicidal rating GALAP,[10]; rate 0.0625 kg/ha,4.0
same,herbicidal rating GALAP,[10]; rate 0.1250 kg/ha,5.0
same,"herbicidal effect rating, ECHORC",[11]; 0.0313 kg/ha,9.0
same,"herbicidal effect rating, ECHORC",[11]; 0.0625 kg/ha,9.0
same,"herbicidal effect rating, ECHORC",[11]; 0.1250 kg/ha,9.0
same,"herbicidal effect rating, ECHORC",[11]; 0.2500 kg/ha,9.0
same,herbicidal rating TRZAWR,[12]; rate 0.0156 kg/ha,3.0
same,herbicidal rating TRZAWR,[12]; rate 0.0313 kg/ha,3.0
same,herbicidal rating TRZAWR,[12]; rate 0.0625 kg/ha,4.0
same,herbicidal rating TRZAWR,[12]; rate 0.1250 kg/ha,5.0
